Assay results reported in patent US4599352A, “Antineoplastic platinum (IV) complexes and compositions” (priority 1984, dated 1986).

What was measured:
[1] = test system: IP L1210; test: Activity against IP-implanted L1210 leukemia sensitive to cisplatin, 60 day test (Table 4); assay type: in vivo, Female CD2Fl mice
Method in brief: (§1)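 Mice given 10^5 leukemia cells intraperitoneally on Day 0, then drug intraperitoneally as single injections on Days 1, 5 and 9, in fresh saline (5% sodium bicarbonate for NSC-271674). Animals held 60 days; median survival expressed as % T/C, with Day 5 body weight difference (T-C).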

[2] = test system: IP-Implanted L1210 Leukemia; test: Dose-response against IP-implanted L1210 leukemia, IP treatment Days 1, 5 and 9, 30-day test (Table 2); assay type: in vivo, CD2Fl male mice
Method in brief: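 CD2F1 male mice implanted IP with 10^5 cells on Day 0; single IP doses in saline (5% sodium bicarbonate for NSC-271674) on Days 1, 5, 9. Median survival over 30 days (survivors included) as % T/C; Day 5 body-weight difference T−C (g); net log10 tumor-burden change over therapy from ~6.1×10^5 starting cells.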

[3] = test system: IP L1210/Cisplatin; test: Activity against IP-implanted L1210/Cisplatin leukemia resistant to cisplatin, 60 day test (Table 4); assay type: in vivo, Female CD2Fl mice
Method in brief: as §1

[4] = test system: IP L1210/Cisplatin; test: Activity against IP-implanted L1210/Cisplatin leukemia resistant to cisplatin, 30 day test (Table 3); assay type: in vivo, Female CD2Fl mice
Method in brief: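 CD2F1 mice implanted IP with 10^5 cells on Day 0; compounds given IP as single injections on Days 1, 5 and 9, freshly prepared in saline (5% sodium bicarbonate for NSC-271674). Activity as median survival % T/C over 30 days, Day 5 body-weight difference (T-C) and log10 change in tumor burden.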

[Cl][Pt-2]1([Cl])([Cl])([Cl])[NH2+][C@@H]2CCCC[C@H]2[NH2+]1 [trans (l), (1R,2R)-Tetrachloro-trans-1,2-cyclohexanediammine platinum (IV)]
60 Day Survivors/Total ([1]; 1 mg/kg/dose): 0/10
Body Weight Difference ([1]; 1 mg/kg/dose): -0.4 Grams
Median % T/C ([1]; 1 mg/kg/dose): 146%
60 Day Survivors/Total ([1]; 2 mg/kg/dose): 2/10
Body Weight Difference ([1]; 2 mg/kg/dose): -0.8 Grams
Median % T/C ([1]; 2 mg/kg/dose): 216%
60 Day Survivors/Total ([1]; 4 mg/kg/dose): 0/10
Body Weight Difference ([1]; 4 mg/kg/dose): -2.2 Grams
Median % T/C ([1]; 4 mg/kg/dose): 208%
60 Day Survivors/Total ([1]; 8 mg/kg/dose): 1/10
Body Weight Difference ([1]; 8 mg/kg/dose): -3.7 Grams
Median % T/C ([1]; 8 mg/kg/dose): 228%
60 Day Survivors/Total ([1]; 16 mg/kg/dose): 0/10
Body Weight Difference ([1]; 16 mg/kg/dose): -5.9 Grams
Median % T/C ([1]; 16 mg/kg/dose): Toxic
30-Day Survivors/Total ([2]; 1 mg/kg/dose IP): 0/6
Approx. Log10 Change in Tumor Burden at End of Rx ([2]; 1 mg/kg/dose IP): ~2.7 log10
Body Weight Difference ([2]; 1 mg/kg/dose IP): -0.4 Grams
Median % T/C ([2]; 1 mg/kg/dose IP): 134%
30-Day Survivors/Total ([2]; 2 mg/kg/dose IP): 0/6
Approx. Log10 Change in Tumor Burden at End of Rx ([2]; 2 mg/kg/dose IP): ~1.7 log10
Body Weight Difference ([2]; 2 mg/kg/dose IP): -0.9 Grams
Median % T/C ([2]; 2 mg/kg/dose IP): 170%
30-Day Survivors/Total ([2]; 4 mg/kg/dose IP): 2/6
Approx. Log10 Change in Tumor Burden at End of Rx ([2]; 4 mg/kg/dose IP): ~-2.8 log10
Body Weight Difference ([2]; 4 mg/kg/dose IP): -1.2 Grams
Median % T/C ([2]; 4 mg/kg/dose IP): 238%
30-Day Survivors/Total ([2]; 8 mg/kg/dose IP): 1/6
Approx. Log10 Change in Tumor Burden at End of Rx ([2]; 8 mg/kg/dose IP): ~-5.7 log10
Body Weight Difference ([2]; 8 mg/kg/dose IP): -2.5 Grams
Median % T/C ([2]; 8 mg/kg/dose IP): 319%
Body Weight Difference ([2]; 8 mg/kg/dose IP, listed as trans l): less than -4 Grams
30-Day Survivors/Total ([2]; 16 mg/kg/dose IP): 0/6
Approx. Log10 Change in Tumor Burden at End of Rx ([2]; 16 mg/kg/dose IP): ~3.0 log10
Body Weight Difference ([2]; 16 mg/kg/dose IP): -3.5 Grams
Median % T/C ([2]; 16 mg/kg/dose IP): 119%
Optimal dose (dose producing best therapeutic response) ([2]; day 1, 5 and 9 schedule): 8 mg/kg/injection
60 Day Survivors/Total ([3]; 1 mg/kg/dose): 0/10
Body Weight Difference ([3]; 1 mg/kg/dose): -1.1 Grams
Median % T/C ([3]; 1 mg/kg/dose): 132%
60 Day Survivors/Total ([3]; 2 mg/kg/dose): 4/10
Body Weight Difference ([3]; 2 mg/kg/dose): -0.8 Grams
Median % T/C ([3]; 2 mg/kg/dose): 239%
60 Day Survivors/Total ([3]; 4 mg/kg/dose): 3/8
Body Weight Difference ([3]; 4 mg/kg/dose): -1.7 Grams
Median % T/C ([3]; 4 mg/kg/dose): 376%
60 Day Survivors/Total ([3]; 8 mg/kg/dose): 0/10
Body Weight Difference ([3]; 8 mg/kg/dose): -3.5 Grams
Median % T/C ([3]; 8 mg/kg/dose): 133%
60 Day Survivors/Total ([3]; 16 mg/kg/dose): 0/10
Body Weight Difference ([3]; 16 mg/kg/dose): -7.3 Grams
Median % T/C ([3]; 16 mg/kg/dose): Toxic
30 Day Survivors/Total ([4]; 1 mg/kg/dose): 0/6
Approx. Log10 Change in Tumor Burden at End of RX ([4]; 1 mg/kg/dose): ~2.8 log10
Median % T/C ([4]; 1 mg/kg/dose): 118%
30 Day Survivors/Total ([4]; 2 mg/kg/dose): 0/6
Approx. Log10 Change in Tumor Burden at End of RX ([4]; 2 mg/kg/dose): ~2.5 log10
Median % T/C ([4]; 2 mg/kg/dose): 137%
30 Day Survivors/Total ([4]; 4 mg/kg/dose): 5/6
Approx. Log10 Change in Tumor Burden at End of RX ([4]; 4 mg/kg/dose): ~-5.9 log10
Median % T/C ([4]; 4 mg/kg/dose): 322%
30 Day Survivors/Total ([4]; 8 mg/kg/dose): 5/6
Approx. Log10 Change in Tumor Burden at End of RX ([4]; 8 mg/kg/dose): ~-5.9 log10
Median % T/C ([4]; 8 mg/kg/dose): 322%
30 Day Survivors/Total ([4]; 16 mg/kg/dose): 0/6
Approx. Log10 Change in Tumor Burden at End of RX ([4]; 16 mg/kg/dose): ~3.1 log10
Median % T/C ([4]; 16 mg/kg/dose): 89%

N[C@@H]1CCCC[C@H]1N.O=C([O-])c1ccc(C(=O)[O-])c(C(=O)[O-])c1.[H+].[Pt+2] [Carboxyphthalato Platinum, carboxyphthalatocyclohexanediamine platinum (II), reference compound]
60 Day Survivors/Total ([1]; 3.13 mg/kg/dose): 2/10
Body Weight Difference ([1]; 3.13 mg/kg/dose): -2.3 Grams
Median % T/C ([1]; 3.13 mg/kg/dose): 280%
60 Day Survivors/Total ([1]; 6.25 mg/kg/dose): 2/10
Body Weight Difference ([1]; 6.25 mg/kg/dose): -3.5 Grams
Median % T/C ([1]; 6.25 mg/kg/dose): 313%
60 Day Survivors/Total ([1]; 12.5 mg/kg/dose): 0/10
Body Weight Difference ([1]; 12.5 mg/kg/dose): -6.0 Grams
Median % T/C ([1]; 12.5 mg/kg/dose): Toxic
60 Day Survivors/Total ([1]; 25 mg/kg/dose): 0/10
Median % T/C ([1]; 25 mg/kg/dose): Toxic
60 Day Survivors/Total ([1]; 50 mg/kg/dose): 0/10
Median % T/C ([1]; 50 mg/kg/dose): Toxic
30-Day Survivors/Total ([2]; 3.13 mg/kg/dose IP): 0/6
Approx. Log10 Change in Tumor Burden at End of Rx ([2]; 3.13 mg/kg/dose IP): ~2.5 log10
Body Weight Difference ([2]; 3.13 mg/kg/dose IP): -0.5 Grams
Median % T/C ([2]; 3.13 mg/kg/dose IP): 146%
30-Day Survivors/Total ([2]; 6.25 mg/kg/dose IP): 0/6
Approx. Log10 Change in Tumor Burden at End of Rx ([2]; 6.25 mg/kg/dose IP): ~2.3 log10
Body Weight Difference ([2]; 6.25 mg/kg/dose IP): -0.8 Grams
Median % T/C ([2]; 6.25 mg/kg/dose IP): 154%
30-Day Survivors/Total ([2]; 12.5 mg/kg/dose IP): 2/6
Approx. Log10 Change in Tumor Burden at End of Rx ([2]; 12.5 mg/kg/dose IP): -5.7 log10
Body Weight Difference ([2]; 12.5 mg/kg/dose IP): -2.1 Grams
Median % T/C ([2]; 12.5 mg/kg/dose IP): 309%
30-Day Survivors/Total ([2]; 25 mg/kg/dose IP): 4/6
Approx. Log10 Change in Tumor Burden at End of Rx ([2]; 25 mg/kg/dose IP): -5.7 log10
Body Weight Difference ([2]; 25 mg/kg/dose IP): -1.5 Grams
Median % T/C ([2]; 25 mg/kg/dose IP): 357%
30-Day Survivors/Total ([2]; 50 mg/kg/dose IP): 2/6
Approx. Log10 Change in Tumor Burden at End of Rx ([2]; 50 mg/kg/dose IP): -5.7 log10
Body Weight Difference ([2]; 50 mg/kg/dose IP): -5.0 Grams
Median % T/C ([2]; 50 mg/kg/dose IP): 345%
Body Weight Difference ([2]; 50 mg/kg/dose IP, listed as carboxyphthalato cyclohexanediamine platinum (II)): more than -4 Grams
60 Day Survivors/Total ([3]; 3.13 mg/kg/dose): 6/10
Body Weight Difference ([3]; 3.13 mg/kg/dose): -1.2 Grams
Median % T/C ([3]; 3.13 mg/kg/dose): 645%
60 Day Survivors/Total ([3]; 6.25 mg/kg/dose): 2/10
Body Weight Difference ([3]; 6.25 mg/kg/dose): -2.9 Grams
Median % T/C ([3]; 6.25 mg/kg/dose): 236%
60 Day Survivors/Total ([3]; 12.5 mg/kg/dose): 0/10
Body Weight Difference ([3]; 12.5 mg/kg/dose): -5.5 Grams
Median % T/C ([3]; 12.5 mg/kg/dose): Toxic
60 Day Survivors/Total ([3]; 25 mg/kg/dose): 0/10
Body Weight Difference ([3]; 25 mg/kg/dose): -3.7 Grams
Median % T/C ([3]; 25 mg/kg/dose): Toxic
60 Day Survivors/Total ([3]; 50 mg/kg/dose): 0/10
Median % T/C ([3]; 50 mg/kg/dose): Toxic
30 Day Survivors/Total ([4]; 3.13 mg/kg/dose): 2/6
Approx. Log10 Change in Tumor Burden at End of RX ([4]; 3.13 mg/kg/dose): ~2.4 log10
Median % T/C ([4]; 3.13 mg/kg/dose): 139%
30 Day Survivors/Total ([4]; 6.25 mg/kg/dose): 4/6
Approx. Log10 Change in Tumor Burden at End of RX ([4]; 6.25 mg/kg/dose): ~-5.9 log10
Median % T/C ([4]; 6.25 mg/kg/dose): 322%
30 Day Survivors/Total ([4]; 12.5 mg/kg/dose): 4/6
Approx. Log10 Change in Tumor Burden at End of RX ([4]; 12.5 mg/kg/dose): ~-5.9 log10
Median % T/C ([4]; 12.5 mg/kg/dose): 322%
30 Day Survivors/Total ([4]; 25 mg/kg/dose): 2/6
Approx. Log10 Change in Tumor Burden at End of RX ([4]; 25 mg/kg/dose): ~-5.9 log10
Median % T/C ([4]; 25 mg/kg/dose): 304%
30 Day Survivors/Total ([4]; 50 mg/kg/dose): 1/6
Median % T/C ([4]; 50 mg/kg/dose): 129%
Reduction in tumor burden over the course of therapy ([4]; L1210/Cisplatin): at least -5.9 logs
30-day survivors ([4]; tolerated doses): three or more 30-day survivors
